Patent US20240108684A1, “DOSING REGIMENS FOR TREATMENT OF FUNGAL INFECTIONS” (priority 2016, published 2024)
Read-outs that look alike come from different tables or passages of the source. *1 amine or outer side, *2 acyl side, *3 side chain or, on linkers, in order; H or OH if unused. Where a SMILES comes first, the peptide text is derived from it. Bridges are numbered along the chain shown (N, C = ends). [ ]: non-standard residue; d: D form. The star is where a group is joined. Orn(4R-OH,5R-OCH2CH2NMe3+) = C[N+](C)(C)CCO[C@@H](N[*:3])[C@H](O)C[C@H](N[*:1])C(=O)[*:2]; pTerphenylCO(4''-OnC5H11) = CCCCCOc1ccc(-c2ccc(-c3ccc(C(=O)*)cc3)cc2)cc1; hTyr(3S-OH,4S-OH) = N[C@H](C(=O)O)[C@H](O)[C@@H](O)c1ccc(O)cc1; Pro(3S-OH,4S-Me) = C[C@H]1CN[C@H](C(=O)O)[C@H]1O; Hyp = O=C(O)[C@@H]1C[C@@H](O)CN1

Columns and labels:
glabrata = details: Sentry 2014; compared with MIC of 0.5 mg/L; cited from earlier work
C. glabrata [1] = assay: Mutant prevention concentration (MPC); type: cell-based, Candida glabrata
Source text: As used herein, the term “mutant prevention concentration” or “MPC” refers to the concentration of a drug sufficient to suppress the development of all but very rare spontaneous mutants. The range of drug concentrations between the MIC and MPC represents a mutant selection window wherein de novo mutants are most likely to occur. Therapeutic regimens that maximize the duration of drug concentrations in excess of the MPC thereby minimize the potential for resistance development during the course of therapy.
Selection of resistance strains in vivo predominantly occurs over a range of drug concentrations falling between the MIC and MPC values. Dosing paradigms that result in plasma drug concentrations in excess of the MPC are therefore more desirable and effective in preventing the development of de novo mutants during the course of therapy (see, e.g., Drlica et al., J. Antimicrob. Chemother. 52:11-17, 2003). Currently approved treatment regimens for caspofungin, micafungin, and anidulafungin involve once-daily dosing at levels such that the Cmax is unlikely to be equivalent to or exceed the MPC at any point during treatment.

[2] = Single ascending dose IV study in healthy adult subjects (safety, PK); type: in vivo, human; details: for AUC(0-t): read-out: AUC0-168; for concentration at 144 h: read-out: C144
Protocol: In a first study, CD101 was administered by IV injection to healthy adult subjects. In this study, subjects in 4 cohorts of 8 subjects (6 active, 2 placebo) each were randomized to receive single IV doses of CD101 or placebo (normal saline) infused over 60 (±5) minutes. Dose levels of CD101 assessed follow an ascending single-dose regimen (50, 100, 200, or 400 mg).
Pharmacokinetics were first determined by analyzing plasma and urine samples for concentration of CD101 obtained from subjects who received CD101 in each cohort at various time points after administration of the single dose of the study drug.

C. albicans (R357) = assay: Disseminated infection model with C. albicans R357, kidney fungal counts; type: in vivo, ICR mice
[3] = tested on: azole-resistant C. albicans R357 strain; assay: MIC and CLSI susceptibility, azole-resistant C. albicans R357; type: cell-based, Candida albicans; details: Candida albicans
C. glabrata [4] = assay: Neutropenic murine disseminated candidiasis model, PK/PD; details: for 1 log kill dose / Static Dose: single IP dose, 7 days
C.albicans (Strain R303) = assay: MIC of the infecting strain R303; details: Candida albicans
[5] = PK model, free-drug plasma concentration-time profiles of fractionated regimens; design: species or system mice
Protocol: Pharmacokinetic-Pharmacodynamic Analyses. Using the data collected from the PK study, a PK model was developed in S-ADAPT. Using the developed PK model, concentration-time profiles and AUC0-168h values were computed for each dosing regimen administered in the dose-fractionation study. […] Relationships between the change in log10 CFU from start of therapy and AUC0-168h were explored.

[6] = human, plasma, 50 mg 1-hour IV infusion
[7] = human, plasma, 100 mg 1-hour IV infusion
[8] = human, plasma, 200 mg 1-hour IV infusion
[9] = human, plasma, 400 mg 1-hour IV infusion
[10] = single IV 50, 100, 200 or 400 mg

Q: Which MIC90 (glabrata) does the source give for `CCCCCOc1ccc(-c2ccc(-c3ccc(C(=O)N[C@H]4C[C@@H](O)[C@@H](OCC[N+](C)(C)C)NC(=O)[C@@H]5[C@@H](O)[C@@H](C)CN5C(=O)[C@H]([C@@H](C)O)NC(=O)[C@H]([C@H](O)[C@@H](O)c5ccc(O)cc5)NC(=O)[C@@H]5C[C@@H](O)CN5C(=O)[C@H]([C@@H](C)O)NC4=O)cc3)cc2)cc1` [CD101] ({pTerphenylCO(4''-OnC5H11)}-[Orn(4R-OH,5R-OCH2CH2NMe3+)]T[Hyp][hTyr(3S-OH,4S-OH)]T[Pro(3S-OH,4S-Me)]; lactam 1-C) here?
A: 0.06 µg/mL

Q: And the MPC (C. glabrata [1])?
A: 16 µg/mL

Q: And the Cmax ([2]; 400 mg 1-hour IV infusion)?
A: 22700 ng/mL

Q: And the Dose proportionality ([2]; 50-400 mg single IV)?
A: AUC and Cmax increased in a dose proportional manner

Q: And the “Fraction of dose excreted in urine” value ([2]; all dose levels)?
A: < 1%

Q: What about the half-life ([2]; human, plasma, intravenous, incorporating data from later collection times, read-out: terminal t1/2) of the same compound?
A: 127 to 146 h

Q: What about the half-life ([2]; human, plasma, intravenous, through the first week of plasma collection, read-out: t1/2 (converted)) of the same compound?
A: > 80 h

Q: And the Vd ([2]; human, plasma, intravenous, 50-400 mg, read-out: Volume of distribution (Vz and Vss))?
A: 33 to 48 L

Q: What about the clearance ([2]; human, plasma, intravenous, across the CD101 doses 50-400 mg, read-out: Total body clearance) of the same compound?
A: ~4 mL/min

Q: And the Tmax ([2]; human, plasma, intravenous, after start of 1-hour infusion, all doses)?
A: ~1 h

Q: And the half-life ([2]; human, plasma, iv, 50 mg, 50 mg 1-hour IV infusion, read-out: t1/2 (converted))?
A: 86 h

Q: And the half-life ([2]; human, plasma, iv, 100 mg, 100 mg 1-hour IV infusion, read-out: t1/2 (converted))?
A: 92 h

Q: And the half-life ([2]; human, plasma, iv, 200 mg, 200 mg 1-hour IV infusion, read-out: t1/2 (converted))?
A: 91 h

Q: And the half-life ([2]; human, plasma, iv, 400 mg, 400 mg 1-hour IV infusion, read-out: t1/2 (converted))?
A: 84 h

Q: And the AUC(0-t) [2, 6]?
A: 145 µg·h/mL

Q: And the concentration at 144 h [2, 6]?
A: 481 ng/mL

Q: What about the Cmax ([2]; human, plasma, 50 mg 1-hour IV infusion, read-out: Cmax) of the same compound?
A: 2760 ng/mL

Q: What about the AUC(0-t) [2, 7] of the same compound?
A: 254 µg·h/mL

Q: What about the concentration at 144 h [2, 7] of the same compound?
A: 854 ng/mL

Q: And the Cmax ([2]; human, plasma, 100 mg 1-hour IV infusion, read-out: Cmax)?
A: 4840 ng/mL

Q: And the AUC(0-t) [2, 8]?
A: 592 µg·h/mL

Q: And the concentration at 144 h [2, 8]?
A: 2010 ng/mL

Q: What about the Cmax ([2]; human, plasma, 200 mg 1-hour IV infusion, read-out: Cmax) of the same compound?
A: 10900 ng/mL

Q: What about the AUC(0-t) [2, 9] of the same compound?
A: 1160 µg·h/mL

Q: And the concentration at 144 h [2, 9]?
A: 3830 ng/mL

Q: What about the “Drug-related AEs from laboratory abnormalities” value [2, 10] of the same compound?
A: no drug-related AEs resulting from clinically significant hematology or clinical chemistry laboratory abnormalities at any dose

Q: And the “ECG, vital signs, physical exam” value [2, 10]?
A: no safety issues related to electrocardiograms (ECGs), vital signs, or physical exam findings

Q: What about the “Serious and severe adverse events” value [2, 10] of the same compound?
A: no serious adverse events (SAEs), severe adverse events (AEs), or dose-response relationships for overall AEs

Q: And the “Severity and resolution of AEs” value [2, 10]?
A: majority of AEs were mild, and all AEs completely resolved by the end of the study

Q: And the Safety and tolerability ([2]; single dose up to 400 mg)?
A: safe and well tolerated

Q: What about the “Antimicrobial effect versus vehicle (kidney fungal counts)” value (C. albicans (R357); 3, 10, and 30 mg/kg IP once, 48 and 72 hr after infection) of the same compound?
A: Significant antimicrobial effects (P<0.05)

Q: And the “Reduction in fungal counts” value (C. albicans (R357); all CD101 groups (3, 10, 30 mg/kg IP), 48 and 72 hr)?
A: two log reduction

Q: And the MIC [3]?
A: 0.125 µg/mL

Q: And the “1 log kill Ave 24 h AUC/MIC” value (C. glabrata [4]; C. glabrata 5592)?
A: 114

Q: What about the “Stasis Ave 24 h AUC/MIC” value (C. glabrata [4]; C. glabrata 5592) of the same compound?
A: 21.7

Q: What about the “1 log kill dose” value (C. glabrata [4]; C. glabrata 5592) of the same compound?
A: 0.51 mg/kg

Q: And the “Static Dose” value (C. glabrata [4]; C. glabrata 5592)?
A: 0.03 mg/kg

Q: What about the “1 log kill Ave 24 h AUC/MIC” value (C. glabrata [4]; C. glabrata 10956) of the same compound?
A: 301

Q: What about the “Stasis Ave 24 h AUC/MIC” value (C. glabrata [4]; C. glabrata 10956) of the same compound?
A: 120

Q: What about the “1 log kill dose” value (C. glabrata [4]; C. glabrata 10956) of the same compound?
A: 17.3 mg/kg

Q: What about the “Static Dose” value (C. glabrata [4]; C. glabrata 10956) of the same compound?
A: 6.29 mg/kg

Q: What about the “1 log kill Ave 24 h AUC/MIC” value (C. glabrata [4]; C. glabrata 35315) of the same compound?
A: 105

Q: And the “Stasis Ave 24 h AUC/MIC” value (C. glabrata [4]; C. glabrata 35315)?
A: 17.9

Q: And the “1 log kill dose” value (C. glabrata [4]; C. glabrata 35315)?
A: 2.39 mg/kg

Q: What about the “Static Dose” value (C. glabrata [4]; C. glabrata 35315) of the same compound?
A: 0.34 mg/kg

Q: And the MIC (C.albicans (Strain R303))?
A: 0.125 µg/mL

Q: And the “Time free-drug plasma concentrations of single dose remain above the daily regimen” value ([5]; 2 mg/kg total dose)?
A: 48 h

Q: And the “Time free-drug plasma concentrations of single dose remain above the twice weekly regimen” value ([5]; 2 mg/kg total dose)?
A: 84 h

Q: And the “Free-drug plasma AUC0≥” value ([5]; CD101 2 mg/kg as a single dose)?
A: 0.0654 mgh/L

Q: And the “Free-drug plasma AUC0≥” value ([5]; CD101 2 mg/kg total, daily regimen)?
A: 0.00948 mgh/L

Q: What about the “Free-drug plasma AUC0≥” value ([5]; CD101 2 mg/kg total, twice weekly) of the same compound?
A: 0.0303 mgh/L
